Here are results for ten compounds from ChEMBL document CHEMBL1201862, “PubChem BioAssay data set” (2004).

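Five compound concentrations were applied to cells in 96-well plates for 48 hours; endpoints were derived by simple linear interpolation of the resulting dose-response curve. GI50: concentration for 50% inhibition of growth.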 Calls of active or inactive are those of the source. Cut-off read from the data, not from the text of the source: active = GI50 up to about 1.1 µM and inactive = higher.

Some test systems named below: A549; CCRF-CEM; DU-145; HCC 2998; HL-60; Hs-578T; M14; MOLT-4; Malme-3M; NCI-H522; OVCAR-3; OVCAR-4; OVCAR-8; SF-268; SF-295; SK-MEL-2; SNB-75; SR; UACC-62; UO-31.
Common to all, as to experiment: NCI tumour cell line growth inhibition, 48 h

For `Nc1ncnc2c1ccn2C1OC2COP(=O)(O)OC2C1O` (configuration not stated), the GI50 with A549 is 0.365 µM (active); in the assay on CCRF-CEM it was 0.773 µM (active); with DU-145, 0.723 µM (active); with HCC 2998 it was 0.942 µM (active); in the assay on HL-60, < 0.0476 µM (active); in the assay on Hs-578T, 0.502 µM (active). Moreover, the GI50 in the assay with M14 was 0.069 µM (active); in the assay with MOLT-4, 0.681 µM (active); in the assay with Malme-3M it was 0.27 µM (active); with NCI-H522 it was 0.14 µM (active); in the assay with OVCAR-3, 0.275 µM (active); in the assay on OVCAR-4 it was 0.174 µM (active). Further, the GI50 in the assay with OVCAR-8 is 0.0773 µM (active); in the assay on SF-268 it was 0.46 µM (active); in the assay with SF-295, 0.641 µM (active); in the assay on SK-MEL-2, 0.458 µM (active); in the assay on SNB-75, 0.231 µM (active); in the assay on SR, 0.173 µM (active). For the same compound, the GI50 with UACC-62 was 0.0914 µM (active); with UO-31, 0.196 µM (active).
Take `O=C(O)c1ccc(C2SCc3nc4ccccc4n32)cc1` (configuration not stated): the GI50 in the assay with A549, with CCRF-CEM, in the assay on DU-145, with HCC 2998, in the assay with HL-60 and in the assay with Hs-578T was > 100 µM (inactive) in each case. Besides, the GI50 with M14, with MOLT-4, with Malme-3M, with NCI-H522, in the assay with OVCAR-3 and in the assay with OVCAR-4 was > 100 µM (inactive) throughout. The GI50 in the assay with OVCAR-8, in the assay on SF-268, with SF-295, in the assay on SK-MEL-2, with SNB-75 and with SR was > 100 µM (inactive) throughout. Also, in the assay with UO-31, the GI50 is > 100 µM (inactive).
Turning to `Cn1c2ccccc2c(=NNc2ccc(C(=O)O)cc2)c2ccccc21`, the GI50 in the assay with A549 is 14.4 µM (inactive); in the assay with CCRF-CEM it was 15.2 µM (inactive); in the assay with DU-145, 19.5 µM (inactive); in the assay on HCC 2998, 8.38 µM (inactive); in the assay with HL-60 it was 14.6 µM (inactive); in the assay on Hs-578T, 18.7 µM (inactive). For the same compound, the GI50 in the assay on M14 was 16.9 µM (inactive); in the assay on MOLT-4, 11.3 µM (inactive); in the assay with Malme-3M, 21.1 µM (inactive); in the assay on NCI-H522 it was 10.7 µM (inactive); in the assay on OVCAR-3 it was 16.5 µM (inactive); in the assay on OVCAR-4, 12.9 µM (inactive). Besides, the GI50 with OVCAR-8 was 14.8 µM (inactive); in the assay with SF-268, 15.8 µM (inactive); with SF-295, 20.8 µM (inactive); in the assay with SK-MEL-2 it was 19.6 µM (inactive); in the assay on SNB-75 it was 19.8 µM (inactive); in the assay with SR, 13.8 µM (inactive). Also, the GI50 with UACC-62 is 18.5 µM (inactive); in the assay on UO-31 it was 15.1 µM (inactive).
As for `CC[C@@]1(O)C(=O)OCc2c1cc1n(c2=O)Cc2c-1nc1ccccc1c2/C=N\NC(=O)CN`, the GI50 is 0.687 µM (active) with A549; < 0.0163 µM (active) in the assay with CCRF-CEM; 0.0989 µM (active) with DU-145; 2.21 µM (inactive) in the assay on HCC 2998; 0.145 µM (active) with HL-60; > 40.5 µM (inactive) with Hs-578T. Moreover, the GI50 in the assay with M14 was 0.126 µM (active); in the assay with MOLT-4, < 0.0316 µM (active); in the assay on Malme-3M, 2.76 µM (inactive); in the assay on NCI-H522, 1.02 µM (active); with OVCAR-3, 6.9 µM (inactive); in the assay on OVCAR-4, 9.46 µM (inactive). The GI50 is 0.273 µM (active) with OVCAR-8; 0.0387 µM (active) in the assay on SF-268; 0.143 µM (active) in the assay with SF-295; 23.8 µM (inactive) in the assay with SK-MEL-2; 0.133 µM (active) with SNB-75; < 0.0125 µM (active) with SR. In addition, the GI50 is 0.0333 µM (active) in the assay with UACC-62 and 0.33 µM (active) in the assay with UO-31.
On to `CN1CCN(c2ccc3[nH]c(-c4ccc5[nH]c(CCCc6ccc(N(CCCl)CCCl)cc6)nc5c4)nc3c2)CC1`, for which the GI50 in the assay on A549 is > 100 µM (inactive); in the assay with CCRF-CEM it was 75.3 µM (inactive); with DU-145 it was > 100 µM (inactive); in the assay with HCC 2998 it was > 100 µM (inactive); with HL-60 it was 62.8 µM (inactive); in the assay with Hs-578T it was 2.09 µM (inactive). For the same compound, the GI50 is > 100 µM (inactive) in the assay with M14; 77.8 µM (inactive) in the assay on MOLT-4; > 100 µM (inactive) in the assay with Malme-3M; > 100 µM (inactive) in the assay with NCI-H522; > 100 µM (inactive) in the assay with OVCAR-4; > 100 µM (inactive) with OVCAR-8. In addition, the GI50 was > 100 µM (inactive) in the assay with SF-268; > 100 µM (inactive) in the assay with SF-295; > 100 µM (inactive) in the assay with SK-MEL-2; > 100 µM (inactive) in the assay with SNB-75; 96.2 µM (inactive) in the assay on SR; 84.5 µM (inactive) with UACC-62. Besides, in the assay with UO-31, the GI50 is > 100 µM (inactive).
In the case of `Cc1nc2c(Cl)cc(Cl)cc2c2c1CCO2`, the GI50 in the assay with A549 was > 100 µM (inactive); in the assay on CCRF-CEM it was 48.4 µM (inactive); in the assay with DU-145 it was > 100 µM (inactive); in the assay on HCC 2998, > 100 µM (inactive); with HL-60, 65.3 µM (inactive); in the assay with Hs-578T, > 100 µM (inactive). The GI50 with M14 is > 100 µM (inactive); in the assay on MOLT-4, 75.3 µM (inactive); in the assay on Malme-3M, > 100 µM (inactive); in the assay with NCI-H522, > 100 µM (inactive); in the assay on OVCAR-4 it was > 100 µM (inactive); in the assay with OVCAR-8, > 100 µM (inactive). Moreover, the GI50 in the assay with SF-268 is > 100 µM (inactive); in the assay with SF-295 it was > 100 µM (inactive); in the assay with SK-MEL-2, > 100 µM (inactive); with SNB-75 it was 60.8 µM (inactive); with SR it was > 100 µM (inactive); in the assay with UACC-62, > 100 µM (inactive). In addition, the GI50 in the assay on UO-31 is 67 µM (inactive).
Regarding `Cc1ccc([N+](=O)[O-])c2c(NCCNC(=O)Cn3ccnc3[N+](=O)[O-])ccnc12`, the GI50 in the assay with A549 is 48.5 µM (inactive); with CCRF-CEM, > 100 µM (inactive); in the assay with DU-145, 57.3 µM (inactive); in the assay on HCC 2998, 39.6 µM (inactive); in the assay with HL-60, > 100 µM (inactive); in the assay with Hs-578T, 28.3 µM (inactive). The GI50 with M14 was > 100 µM (inactive); with MOLT-4, > 100 µM (inactive); in the assay on Malme-3M, 28.6 µM (inactive); in the assay on NCI-H522, 15.5 µM (inactive); with OVCAR-3, 23.2 µM (inactive); in the assay with OVCAR-4, 33.3 µM (inactive). Besides, the GI50 was 31.3 µM (inactive) in the assay with OVCAR-8; 36.5 µM (inactive) in the assay on SF-268; 20.5 µM (inactive) with SF-295; 43.6 µM (inactive) with SK-MEL-2; > 100 µM (inactive) in the assay on SNB-75; > 100 µM (inactive) with SR. The GI50 in the assay with UACC-62 is 22.7 µM (inactive); in the assay on UO-31 it was > 100 µM (inactive).
On to `O=c1c2ncn(C3CC(O)C(CO)O3)c2nnn1Cc1ccccc1[N+](=O)[O-]` (configuration not stated), for which the GI50 with A549 is > 100 µM (inactive); in the assay on CCRF-CEM, > 100 µM (inactive); in the assay with DU-145 it was > 100 µM (inactive); with HCC 2998, > 100 µM (inactive); in the assay with HL-60 it was 57.3 µM (inactive); in the assay with Hs-578T it was > 100 µM (inactive). In addition, the GI50 with M14 is > 100 µM (inactive); in the assay on MOLT-4 it was 29.4 µM (inactive); in the assay on Malme-3M it was > 100 µM (inactive); in the assay with NCI-H522, > 100 µM (inactive); with OVCAR-3, 75 µM (inactive); in the assay with OVCAR-4 it was > 100 µM (inactive). Besides, the GI50 in the assay on OVCAR-8 is > 100 µM (inactive); with SF-268, > 100 µM (inactive); with SF-295 it was > 100 µM (inactive); with SK-MEL-2 it was 4.78 µM (inactive); with SNB-75, > 100 µM (inactive); with SR, 3.13 µM (inactive). Also, the GI50 with UACC-62 and in the assay with UO-31 was > 100 µM (inactive) in each case.
Take `C=C(CN(C)C)C(=O)c1ccc(C)cc1C`: the GI50 was 32.2 µM (inactive) in the assay with A549; 0.574 µM (active) with CCRF-CEM; 17.6 µM (inactive) in the assay with DU-145; 17.1 µM (inactive) in the assay on HCC 2998; 0.46 µM (active) with HL-60; 26.1 µM (inactive) in the assay with Hs-578T. Moreover, the GI50 in the assay on M14 was 5.93 µM (inactive); in the assay with MOLT-4, 1.01 µM (active); in the assay on Malme-3M, 5.7 µM (inactive); in the assay with NCI-H522 it was 2.9 µM (inactive); in the assay with OVCAR-3, 7.87 µM (inactive); with OVCAR-4, 9.86 µM (inactive). The GI50 with OVCAR-8 was 12.9 µM (inactive); in the assay on SF-268 it was 15.3 µM (inactive); in the assay on SF-295, 16.3 µM (inactive); in the assay on SK-MEL-2 it was 18 µM (inactive); in the assay on SNB-75, 16.5 µM (inactive); in the assay with SR, 1.25 µM (inactive). Also, the GI50 with UACC-62 was 10.5 µM (inactive); in the assay on UO-31, 12.2 µM (inactive).
Consider `C/C(=N\NC(=S)N1CCCCCC1)c1ccccn1`, for which the GI50 in the assay with A549 was 0.0271 µM (active); in the assay on CCRF-CEM, 0.00383 µM (active); in the assay with DU-145, 0.986 µM (active); in the assay with HCC 2998, 0.158 µM (active); with HL-60, 0.0021 µM (active); in the assay on Hs-578T it was 0.322 µM (active). The GI50 in the assay on M14 is 0.0266 µM (active); in the assay on MOLT-4, 0.00676 µM (active); with Malme-3M it was 0.0316 µM (active); with NCI-H522 it was 0.0624 µM (active); in the assay on OVCAR-3, < 0.001 µM (active); with OVCAR-4, 0.185 µM (active). For the same compound, the GI50 was 0.00383 µM (active) with OVCAR-8; 0.405 µM (active) in the assay with SF-268; < 0.0187 µM (active) with SF-295; 0.132 µM (active) in the assay with SK-MEL-2; 0.0692 µM (active) in the assay with SNB-75; 0.00392 µM (active) in the assay with SR. Besides, the GI50 in the assay with UACC-62 is 0.00881 µM (active); with UO-31, 0.543 µM (active).
